≈ marks a conversion by molar mass, not a printed value. Where two headings read alike, the source gives them in different places. Blank lines part the entries; values can stand above or below the compound they belong to.
Tests used:
in vivo = settings: male, dog, plasma, beagle dogs, oral, 40 mg/kg
Caco-2 cells = assay: in vitro; type: cell-based; settings: Caco-2, CCK-8
in vitro = type: cell-based; settings: human, Caco-2 cells, read-out: cell viability; for viability at 24 h: Caco-2, 24 h
Caco-2 cell monolayer = Caco-2 cell monolayer transport of DAI (AP to BL); type: in vitro ADME; settings: 120 min
Procedure: (§1) Caco-2 cells were seeded on 12-well Transwell® (Corning Costar, Lowell, MA, United States) culture plates (pore size 0.4 µm, surface area 1.12 cm^2) at 5 × 10^4 cells/mL. On the 3rd, 5th, 7th, 13th, 18th, and 21st days of culture, the transepithelial electrical resistance (TEER) value was measured using an EVOM2 transmembrane resistance meter (Millipore, United States) to evaluate the integrity of the Caco-2 cell monolayer.
(§2) After washing the Caco-2 cell monolayer twice with prewarmed Hank’s Balanced Salt Solution (HBSS), the transport experiments were performed by adding the final concentration of DAI (0.5 mL) to the apical side (AP) as the donor chamber, and adding HBSS (1.5 mL) to the basolateral side (BL) as the receiving chamber. The plate was incubated at 37°C and 200 μL of sample was collected from the BL side at 30, 45, 60, 90, and 120 min. […]
(§3) The apparent permeability coefficient (P app ) for DAI was calculated using Eq. 3 ([Ndayishimiye et al., 2022]). Papp=dQ/dt∗1/A∗C0 cm/s (3) where Q refers to the cumulative transport amount, i.e., the total drug quantity on the receiving side (μg); dQ/dt represents the transport rate of the drug through the Caco-2 cell monolayer (μg/s); A denotes the chamber membrane area (1.12 cm^2); and C0 is the initial concentration of DAI on the AP side (μg/mL).

[1] = Caco-2 cell monolayer transport of DAI (AP to BL); type: in vitro ADME; settings: human, Caco-2, DAI 50 μg/mL, read-out: apparent permeability coefficient (P app)
Procedure: as §1, §2, §3

[2] = Powder dissolution (apparent solubility) in pH 6.8 phosphate buffer and water; type: physicochemical
Procedure: A Model 1,525 system (Waters Corporation, Milford MA, United States) equipped with a photodiode array (PDA) detector (Waters 2998, Milford MA, United States) and a SunFire C18 column (4.6 mm × 250 mm, 5 μm, Waters, Ireland) was used for HPLC analysis. The column temperature was maintained at 37°C and the autosampler temperature was room temperature. The mobile phase consisted of methanol and H2O (70:30, v/v) at a flow rate of 1.0 mL/min. The detection wavelength of the UV detector was 248 nm and the injection volume of sample was 20 µL. The standard curve ranged from 10 μg/mL to 0.078125 μg/mL. […] The powders were sieved using standard sieves to control particle size within 75–150 µm. […] The filtrates were diluted to an appropriate concentration, and analyzed using HPLC.

[3] = no reference given; cited from earlier work
[4] = Environmental pH of dissolution media; type: physicochemical
[5] = ref Nan et al., 2014, Panizzon et al., 2019; cited from earlier work
[6] = Efflux function of the Caco-2 cell model with Rhodamine 123; type: in vitro ADME; settings: human

Structure (SMILES): O=c1c(-c2ccc(O)cc2)coc2cc(O)ccc12 [DAI, 4′,7-dihydroxyisoflavone]
Tmax (in vivo): 49.8 ± 8.4 min | Cmax (in vivo): 210 ± 40 ng/mL | AUC (in vivo; read-out: AUC0∼24): 1740 ± 150 ng·h/mL | effect on Caco-2 cells (Caco-2 cells): dose-dependent inhibitory effect | viability at 24 h (in vitro; 1st of five listed concentrations (not assigned)): 87% | viability at 24 h (in vitro; 2nd of five listed concentrations (not assigned)): 88.1% | viability at 24 h (in vitro; 3rd of five listed concentrations (not assigned)): 94.7% | viability at 24 h (in vitro; 4th of five listed concentrations (not assigned)): 98% | viability at 24 h (in vitro; 5th of five listed concentrations (not assigned)): 94% | cumulative transport of DAI (Caco-2 cell monolayer): 9.19 ± 0.65 µg | Papp at 120 min, 50 μg/mL [1]: 22.8 ± 1.6 ×10⁻⁶ cm/s | peak time of Smax ([2]; pH 6.8 buffer): 45 min | solubility at 45 min ([2]; pH 6.8 phosphate buffer, aqueous buffer, thermodynamic from solid, pH 6.8 buffer, 37°C, powder dissolution, read-out: maximum apparent solubility (Smax)): 1.01 ± 0.06 µg/mL (≈ 3.97 µM) | time to reach Smax ([2]; water): ≤ 240 min | solubility at 240 min ([2]; water, 37 °C, water, thermodynamic from solid, read-out: maximum apparent solubility (Smax)): 0.48 ± 0.09 µg/mL (≈ 1.89 µM) | pK a [3]: 7.43 | environmental pH ([4]; medium pH6.8 buffer): 6.74 ± 0.03 | environmental pH ([4]; medium water (pH 7.0)): 3.80 ± 0.06 | water solubility [5]: 0.31 µg/mL (≈ 1.22 µM)

Structure (SMILES): C1CNCCN1 [PIP, Piperazine]
viability at 24 h, 16.94 μg/mL (in vitro; Caco-2, PIP 16.94 μg/mL): 85.2%

Papp A→B at 120 min ([6]; 120 min): 0.179 ± 0.061 ×10⁻⁶ cm/s | Papp B→A at 120 min ([6]; 120 min): 0.852 ± 0.016 ×10⁻⁶ cm/s | efflux ratio at 120 min ([6]; Papp BL→AP / Papp AP→BL, read-out: Efflux ratio (ER)): 4.76
Structure (SMILES): COC(=O)c1ccccc1-c1c2ccc(=N)cc-2oc2cc(N)ccc12 [Rhodamine 123]
